According to patent US4558058A, “Substituted 1,4-dihydropyridines and their use as medicaments” (Cassella Aktiengesellschaft, priority 1982, dated 1985):
pIC50: −log10 of the molar value.

Tested on: helical strips of pulmonary artery of guinea pigs
Assay: calcium-antagonistic action: inhibition of CaCl2-induced contraction of potassium-depolarised helical strips of pulmonary artery
Type: cell-based
Details: Cavia porcellus; guinea pig pulmonary artery strips, calcium-free Tyrode's solution, 40 mmol potassium, 0.5 mmol CaCl2; mean value from 4 to 6 strips; read-out: IC50 (concentration of the test substance which inhibits contraction by 50%)
Experimental: This entailed helical strips of pulmonary artery of guinea pigs being equilibrated in calcium-free Tyrode's solution and depolarised with 40 mmol of potassium. Addition of 0.5 mmol of CaCl2 then initiates contraction. The relaxant action of the test substance is determined by cumulative addition of concentrations increasing in steps of 1/2 log 10.

Q: With `COC(=O)C1=C(C)NC(C)=C(c2nc(Cc3ccccc3)no2)C1c1cccc(Cl)c1Cl` (stereo not shown) [Example 2s, Methyl 1,4-dihydro-2,6-dimethyl-4-(2,3-dichlorophenyl)-5-(3-benzyl-1,2,4-oxadiazol-5-yl)pyridine-3-carboxylate] as the molecule, how does the pIC50 read?
A: 9.15

Q: How did the pIC50 turn out when `CCc1nnc(C2=C(C)NC(C)=C(C(=O)OCCOC)C2c2cccc([N+](=O)[O-])c2)o1` (stereo not shown) [Example 4k, 2-Methoxyethyl 1,4-dihydro-2,6-dimethyl-4-(3-nitrophenyl)-5-(2-ethyl-1,3,4-oxadiazol-5-yl)pyridine-3-carboxylate] was run?
A: 9.00

Q: How did the pIC50 turn out when `CCOC(=O)c1sc(C2=C(C)NC(C)=C(C(=O)OCCOC)C2c2cccc([N+](=O)[O-])c2)nc1C` (stereo not shown) [Example 5b, 2-Methoxyethyl 1,4-dihydro-2,6-dimethyl-4-(3-nitrophenyl)-5-(4-methyl-5-ethoxycarbonyl-2-thiazolyl)pyridine-3-carboxylate] was run?
A: 8.80

Q: How did the pIC50 turn out when `CC1=C(C(=O)OCCOC(C)C)C(c2cccc(Cl)c2Cl)C(c2nnc(C)o2)=C(C)N1` (stereo not shown) [Example 2z1, 2-Isopropoxyethyl 1,4-dihydro-2,6-dimethyl-4-(2,3-dichlorophenyl)-5-(2-methyl-1,3,4-oxadiazol-5-yl)pyridine-3-carboxylate] was run?
A: 8.82

Q: How did the pIC50 turn out when `COCCOC(=O)C1=C(C)NC(C)=C(c2nnco2)C1c1ccccc1[N+](=O)[O-]` (stereo not shown) [Example 2o, 2-Methoxyethyl 1,4-dihydro-2,6-dimethyl-4-(2-nitrophenyl)-5-(1,3,4-oxadiazol-2-yl)pyridine-3-carboxylate] was run?
A: 9.52

Q: How did the pIC50 turn out when `CCc1noc(C2=C(C)NC(C)=C(C(=O)OCCOC)C2c2cccc(Cl)c2Cl)n1` (stereo not shown) [Example 4b, 2-Methoxyethyl 1,4-dihydro-2,6-dimethyl-4-(2,3-dichlorophenyl)-5-(3-ethyl-1,2,4-oxadiazol-5-yl)pyridine-3-carboxylate] was run?
A: 8.74

Q: With `CC1=C(C(=O)OCC(C)C)C(c2cccc([N+](=O)[O-])c2)C(c2nnco2)=C(C)N1` (stereo not shown) [Example 1z, Isobutyl 1,4-dihydro-2,6-dimethyl-4-(3-nitrophenyl)-5-(1,3,4-oxadiazol-2-yl)pyridine-3-carboxylate] as the molecule, how does the pIC50 read?
A: 9.82

Q: With `COC(=O)C1=C(C)NC(C)=C(c2nnco2)C1c1cccc(Cl)c1Cl` (stereo not shown) [Example 2b, Methyl 1,4-dihydro-2,6-dimethyl-4-(2,3-dichlorophenyl)-5-(1,3,4-oxadiazol-2-yl)pyridine-3-carboxylate] as the molecule, how does the pIC50 read?
A: 9.40

Q: With `COC(=O)C1=C(C)NC(C)=C(c2nc(Cc3ccccc3)no2)C1c1cccc([N+](=O)[O-])c1` (stereo not shown) [Example 2r, Methyl 1,4-dihydro-2,6-dimethyl-4-(3-nitrophenyl)-5-(3-benzyl-1,2,4-oxadiazol-5-yl)pyridine-3-carboxylate] as the molecule, how does the pIC50 read?
A: 9.30

Q: `COC(=O)C1=C(C)NC(C)=C(c2nnc(C)o2)C1c1cccc(Cl)c1Cl` (stereo not shown) [Example 2e, Methyl 1,4-dihydro-2,6-dimethyl-4-(2,3-dichlorophenyl)-5-(5-methyl-1,3,4-oxadiazol-2-yl)pyridine-3-carboxylate] was tested. Which pIC50 did it give?
A: 8.80

Q: With `CC1=C(C(=O)OC(C)C)C(c2cccc(Cl)c2Cl)C(c2nnco2)=C(C)N1` (stereo not shown) [Example 2z2, Isopropyl 1,4-dihydro-2,6-dimethyl-4-(2,3-dichlorophenyl)-5-(1,3,4-oxadiazol-2-yl)pyridine-3-carboxylate] as the molecule, how does the pIC50 read?
A: 9.70

Q: `CC1=C(c2nnco2)C(c2cccc([N+](=O)[O-])c2)C(c2nnco2)=C(C)N1` [Example 3a, 1,4-Dihydro-2,6-dimethyl-3,5-di(1,3,4-oxadiazol-2-yl)-4-(3-nitrophenyl)pyridine] was tested. Which pIC50 did it give?
A: 8.70

Q: How did the pIC50 turn out when `COC(=O)C1=C(C)NC(C)=C(c2nc(Cc3ccccc3)no2)C1c1ccccc1Cl` (stereo not shown) [Example 2w, Methyl 1,4-dihydro-2,6-dimethyl-4-(2-chlorophenyl)-5-(3-benzyl-1,2,4-oxadiazol-5-yl)pyridine-3-carboxylate] was run?
A: 8.60

Q: `CC1=C(C(=O)OC(C)C)C(c2cccc([N+](=O)[O-])c2)C(c2nnco2)=C(C)N1` (stereo not shown) [Example 2n, Isopropyl 1,4-dihydro-2,6-dimethyl-4-(3-nitrophenyl)-5-(1,3,4-oxadiazol-2-yl)pyridine-3-carboxylate] was tested. Which pIC50 did it give?
A: 10.05

Q: `COC(=O)C1=C(C)NC(C)=C(c2nc(Cc3ccccc3)no2)C1c1ccccc1[N+](=O)[O-]` (stereo not shown) [Example 2t, Methyl 1,4-dihydro-2,6-dimethyl-4-(2-nitrophenyl)-5-(3-benzyl-1,2,4-oxadiazol-5-yl)pyridine-3-carboxylate] was tested. Which pIC50 did it give?
A: 9.00

Q: `COCCOC(=O)C1=C(C)NC(C)=C(c2nc(Cc3ccccc3)no2)C1c1cccc([N+](=O)[O-])c1` (stereo not shown) [Example 2v, 2-Methoxyethyl 1,4-dihydro-2,6-dimethyl-4-(3-nitrophenyl)-5-(3-benzyl-1,2,4-oxadiazol-5-yl)pyridine-3-carboxylate] was tested. Which pIC50 did it give?
A: 9.15

Q: `CCc1noc(C2=C(C)NC(C)=C(C(=O)OC)C2c2cccc(Cl)c2Cl)n1` (stereo not shown) [Example 4c, Methyl 1,4-dihydro-2,6-dimethyl-4-(2,3-dichlorophenyl)-5-(3-ethyl-1,2,4-oxadiazol-5-yl)pyridine-3-carboxylate] was tested. Which pIC50 did it give?
A: 8.62

Q: With `CCc1nnc(C2=C(C)NC(C)=C(C(=O)OCCOC)C2c2cccc(Cl)c2Cl)o1` (stereo not shown) [Example 4m, 2-Methoxyethyl 1,4-dihydro-2,6-dimethyl-4-(2,3-dichlorophenyl)-5-(2-ethyl-1,3,4-oxadiazol-5-yl)pyridine-3-carboxylate] as the molecule, how does the pIC50 read?
A: 8.82

Same assay, conditions: guinea pig pulmonary artery strips, calcium-free Tyrode's solution, 40 mmol potassium, 0.5 mmol CaCl2; mean value from 4 to 6 strips; read-out: IC50 (concentration of the test substance which inhibits contraction by 50%)

Q: How did the pIC50 turn out when “2-Methylethyl 1,4-dihydro-2,6-dimethyl-4-(3-cyanophenyl)-5-(3-methyl-1,2,4-oxadiazol-5-yl)pyridine-3-carboxylate [Example 1t]” was run?
A: 8.82
